Source: ChEMBL document CHEMBL1641548, “Fused bicyclic derivatives of 2,4-diaminopyrimidine as c-Met inhibitors” (Bioorg Med Chem Lett, 2011)

What was measured:
Format in all cases: ADME, organism-based
[1] = Oral bioavailability in rat at 5 mg/kg, po; conditions: in vivo
[2] = Clearance in rat at 1 mg/kg, iv; design: dose 1 mg/kg, route intravenous; conditions: in vivo
[3] = AUC (0 to infinity) in rat at 5 mg/kg, po; design: time infinity, dose 5 mg/kg, route oral; conditions: plasma
[4] = AUC (0 to infinity) in rat at 1 mg/kg, iv; design: time infinity, dose 1 mg/kg, route intravenous; conditions: plasma
[5] = Half life in rat at 1 mg/kg, iv; design: dose 1 mg/kg, route intravenous; conditions: in vivo

bioavailability [1]: 8%
clearance [2]: 15 mL/min/kg
AUC(0-inf) [3]: 592 ng·h/mL
AUC(0-inf) [4]: 1260 ng·h/mL
half-life [5]: 42 min
SMILES: CNC(=O)c1cccc(F)c1Nc1nc(Nc2ccc3c(c2)NC(=O)CCC3)ncc1Cl
